This passage reports TGI and GI50 results from PubChem BioAssay (NCI).

“And” between values parts separate entries of the source, which are not always exact repeats. Equal values may be shown once.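 These data come from cells grown in 96-well plates and exposed to compound for 48 hours at five concentrations. GI50: concentration for 50% inhibition of growth. At the TGI there is no net growth.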

What all share (test): NCI anticancer screen, dose series, 48 h
The subject of assay [1] is MDA-N.
Assay [2] relates to DLD-1 colon.
Assay [3] deals with DMS 273 small cell lung.
In assay [4] the test system is KM20L2 colon.
The test system of assay [5] is LXFL 529 NSCLC.
Assay [6] deals with M19-MEL melanoma.
Assay [7] relates to SNB-78 CNS.
The test system of assay [8] is DMS 114 small cell lung.
Assay [9] has as its system RXF-631 renal.

`C/C1=C/C2=CC(C)C[C@@H]2C(=O)[C@]2(C)C(=O)CC(C)(C)[C@H]2CC1=O` (stereo partly specified) gave a TGI in assay [1] greater than 50 µM.
As to `N#C/C(=C\c1ccc(O)c(O)c1)C(=O)NC1CCC(CC2CCC(NC(=O)/C(C#N)=C/c3ccc(O)c(O)c3)CC2)CC1` (stereo unspecified), the TGI is greater than 40.4 µM in assay [2]; 0.832 µM in [3]; 3.81 µM in assay [4]; 28.1 µM in assay [5]; 5.23 µM in assay [6]; 5.37 µM in assay [7].
The compound `O=C(O)CCC(=O)c1ccc2ccc3cccc4ccc1c2c34` yielded a TGI in assay [1] greater than 100 µM.
On to `Cn1nnnc1N/N=C/c1ccccc1`, for which the TGI in [1] is greater than 10 µM.
With `CCN1C(NN)=NS(=O)(=O)c2ccccc21`, the TGI in assay [1] was greater than 100 µM.
For the compound `NNC(=S)N/N=C(/C(=O)Nc1cc(Cl)ccc1Cl)C1C(=O)Nc2ccccc2S1=O` (stereo unspecified), the TGI in assay [2], in [8], in assay [4], in [5], in assay [6] and in assay [7] was greater than 100 µM each time.
Turning to `COc1ccc(N=Nc2c(-c3ccccc3)nn(C(=O)CC(=O)Nc3cccc(Cl)c3)c2-c2ccccc2)cc1`, the TGI in assay [2], in assay [8], in [3], in [4], in assay [5] and in assay [6] was greater than 100 µM each time.
Consider `COc1ccc2c(c1)C(=O)C(=O)c1cc(O)c(OC)c(OC)c1-2`, for which, in assay [1], the GI50 is 1.28 µM; the TGI is 1.4 µM and 2.55 µM.
In turn, `Cc1ccc(C)c(NC(=O)NCc2ccc(Cl)cc2)c1` came in with a TGI in [1] greater than 100 µM.
With `O=C(c1cc2ccccc2o1)N(Cc1ccccc1)c1ccccc1`, the TGI was 56.6 µM in [2]; 44.2 µM in assay [8]; greater than 100 µM in assay [3]; 35.9 µM in assay [4]; greater than 100 µM in assay [5]; 51.4 µM in assay [6]. Also, the TGI in assay [9] and in assay [7] was greater than 100 µM in each case.
`Cc1ccc(Nc2n[nH]c(=S)s2)cc1` returned a TGI in [1] greater than 100 µM.
For the compound `COC(=O)C1=C(C(=O)OC)C23CC1C1C(C(=O)OC)=C(C(=O)OC)C12C1C=CC3C2C(=O)OC(=O)C21` (stereo unspecified), the TGI was greater than 100 µM in [2]; 80.3 µM in assay [8]; greater than 100 µM in [3]; greater than 100 µM in assay [4]; greater than 100 µM in assay [5]; greater than 100 µM in [6]. Also, the TGI in [9] and in assay [7] was greater than 100 µM each time.
For `CCCc1c[nH]c(-c2ccc(-c3cc(CCC)c(C=O)[nH]3)s2)c1`, the TGI came to 28.4 µM in [2]; 27.8 µM in assay [8]; 30.3 µM in assay [3]; 32.8 µM in assay [5]; 21.6 µM in [6]; 37.2 µM in assay [7].
The compound `CN(C)CCNC(=O)Cn1cc([N+](=O)[O-])c(=O)c2ccccc21` had a TGI in assay [1] greater than 100 µM.
Compound `OCC1OC(OCC(O)C(O)C(O)C(/C=N/Nc2ccccc2)=N/Nc2ccccc2)C(O)C(O)C1O` (stereo unspecified) registered a TGI in [1] greater than 100 µM.
As for `c1ccc(-c2cc(C3CO3)c3ccccc3n2)cc1` (stereo unspecified), the TGI in assay [1] was 39.4 µM.
With `Cc1c(C(=O)C/C(=N/NC(=O)C[n+]2ccccc2)C(=O)Nc2ccccc2)[n+](=O)c2ccccc2n1O`, the TGI in [2], in [8], in [3], in assay [4], in [5] and in assay [6] was greater than 100 µM throughout. Further, the TGI in assay [9] and in [7] was greater than 100 µM throughout.
`CCOC(=O)C1=C(O)CSC1=Nc1ccccc1`: the TGI in assay [2], in [3], in [4], in assay [5], in assay [6] and in assay [9] was greater than 100 µM in each case. Moreover, in assay [7], the TGI is greater than 100 µM.
Turning to `CC(O)C(N=Cc1nc(-c2ccccc2)oc1O)C(=O)O` (stereo unspecified), the TGI in [2], in assay [8], in [3], in assay [4], in assay [5] and in [6] was greater than 100 µM in each case. Also, the TGI in [9] and in [7] was greater than 100 µM each time.
For `O=c1cccccc1NCCCCCCNc1cccccc1=O`, the TGI in [2], in assay [8], in [3], in assay [4], in [5] and in assay [6] was greater than 100 µM throughout. Further, the TGI in assay [9] and in [7] was greater than 100 µM throughout.
As for `CC(=O)O[C@]1(C)OC(=O)[C@@H](C)N1[N+](=O)[O-]`, the TGI in assay [2], in assay [8], in assay [3], in assay [4], in [5] and in assay [6] was greater than 100 µM in each case. The TGI in [7] is greater than 100 µM.
`C=CC(C)(O)/C=C/C=C(\C)C(CC1OC1(C)C)OC(=O)/C(C)=C\C` (stereo unspecified): in [1], the TGI was greater than 100 µM.
On to `CC(C)(C)CC(C)(C)c1cc2c(O)c(c1)Cc1cc(C(C)(C)CC(C)(C)C)cc(c1O)Cc1cc(C(C)(C)CC(C)(C)C)cc(c1O)Cc1cc(C(C)(C)CC(C)(C)C)cc(c1O)Cc1cc(C(C)(C)CC(C)(C)C)cc(c1O)Cc1cc(C(C)(C)CC(C)(C)C)cc(c1O)C2`, for which the TGI in assay [2], in [8], in assay [3], in [4], in assay [5] and in assay [6] was greater than 100 µM throughout. In addition, the TGI in assay [9] and in assay [7] was greater than 100 µM throughout.
Regarding `O=C(O)Cc1cccc2c1Oc1ccccc1S2`, the TGI in [2], in assay [8], in assay [3], in assay [4], in assay [5] and in assay [6] was greater than 100 µM in each case. The TGI in assay [7] was greater than 100 µM.
In turn, `CN(C)CCOc1ccc(/C(=C(/CCCl)c2ccccc2)c2ccccc2)cc1` came in with a TGI in assay [1] of 30.2 µM.
With `O=C(c1ccccc1)c1ccc(OCCOc2ccc(Nc3ccccc3)cc2)cc1`, the TGI in assay [2], in [8], in assay [3], in assay [4], in [5] and in assay [6] was greater than 100 µM in each case. Moreover, the TGI in assay [9] is 82.8 µM; in assay [7] it was greater than 100 µM.
`CN=C(NC#N)NCCSCc1nc[nH]c1C` returned a TGI in assay [1] greater than 100 µM.
As for `Cc1cnc(/C=N\NC(N)=S)c2cccc(N)c12`, in assay [1], the TGI was greater than 100 µM.
Same read-out and setting: the same measure for `O=C1C2=Nc3ccccc3C(O)N2c2ccccc21` (stereo unspecified): 3.5 µM.
With `O=C1CCCC/C1=C1\C(=O)Nc2cc(F)ccc21`, the TGI in assay [2], in assay [8], in assay [3], in [4], in [5] and in [6] was greater than 100 µM in each case. Besides, in assay [7], the TGI was greater than 100 µM.
`O=S(=O)(O)c1ccc(-c2nnc(-c3ccccn3)nc2-c2ccc(S(=O)(=O)O)o2)o1` registered a TGI in assay [1] greater than 100 µM.
For the compound `CCSC1(SCC)CC(Cc2ccc(OC)cc2)N(C=NC(C)(C)C)C1` (stereo unspecified), the TGI in assay [2] is greater than 100 µM; in assay [8], 43.4 µM; in assay [3] it was greater than 100 µM; in assay [4], 56.9 µM; in [5] it was 93.6 µM; in assay [6], 97.7 µM. Besides, in assay [7], the TGI was greater than 100 µM.
With `O=C([O][Hg][CH2]C1COC([CH2][Hg][O]C(=O)c2ccccc2)CO1)c1ccccc1` (stereo unspecified), the GI50 was 2.59 µM in [2]; 15 µM in assay [8]; 4.51 µM in assay [3]; 17.9 µM in assay [4]; 1.53 µM in assay [5]; 9.67 µM in [6]. Also, the GI50 is 12.5 µM and 3 µM in assay [1]; 12.2 µM in [7]. Further, the TGI amounted to 7.25 µM in assay [2]; 28.8 µM in assay [8]; 9.83 µM in assay [3]; 32.7 µM in assay [4]; 2.86 µM in assay [5]; 22.9 µM in [6]. Also, the TGI in assay [1] is 25.5 µM and 11.7 µM; in assay [7] it was 32.6 µM.
As to `COc1c(NC(C)=O)cc(C)cc1NC(C)=O`, the TGI in assay [2], in assay [8], in assay [3], in [6] and in assay [7] was greater than 100 µM in each case.
As to `CCCCCCCCOC(CO)CO`, the TGI in [2], in assay [8], in assay [3], in assay [4], in [5] and in assay [6] was greater than 100 µM each time.
Regarding `C1C[S][Ge]2([S]CCO1)[S]CCOCC[S]2`, the GI50 in assay [2], in assay [8], in assay [3], in assay [5], in assay [6] and in assay [9] was greater than 100 µM each time. The GI50 in assay [7] was greater than 100 µM. Moreover, the TGI in assay [2], in [8], in [3], in assay [5], in [6] and in [9] was greater than 100 µM throughout. In assay [7], this compound came in with a TGI greater than 100 µM.
In the case of `Cc1c(-c2nnc(-c3ccc(Cl)cc3)o2)c(=O)n(-c2ccccc2)n1C`, the TGI in assay [2], in [8], in [3], in [4], in assay [5] and in assay [6] was greater than 100 µM each time. The same compound came in with a TGI in assay [7] greater than 100 µM.
As to `C/C(=N\N=C(\[Se])N1CCN(c2ccccn2)CC1)c1ccccn1`, in assay [1], the GI50 is 0.424 µM and the TGI is 21 µM.
Turning to `O=P(NC12CC3CC(CC(C3)C1)C2)(N1CC1)N1CC1`, the TGI in assay [2], in assay [8], in [3], in assay [4], in assay [5] and in assay [6] was greater than 100 µM in each case. Moreover, the TGI in assay [1] and in assay [7] was greater than 100 µM throughout.
Take `O=C1N(c2ccccc2)C(=O)C2(SC=NN2Cc2ccccc2)N1c1ccccc1` (stereo unspecified): the TGI in assay [2], in [8], in [4], in assay [5], in assay [6] and in assay [7] was greater than 100 µM in each case.
Regarding `CC1(C)OC(C[C@]2(C#N)C[C@H](CCl)OC(C)(C)O2)C[C@@H](C[C@]2(C#N)C[C@H](CCl)OC(C)(C)O2)O1` (stereo partly specified), the TGI in [2], in assay [3], in [4], in assay [5], in [6] and in assay [7] was greater than 100 µM each time.
Turning to `CC1(C)CCc2cc3c(cc2O1)OCC1c2cc4c(cc2OC31)OCO4` (stereo unspecified), the TGI in assay [2], in [8], in assay [4], in assay [5], in assay [6] and in assay [9] was greater than 100 µM in each case.
With `COc1ccc(C(=O)C(C(=O)C(=O)Nc2ccc(Cl)c(Cl)c2)c2ccc(OC)cc2)cc1` (stereo unspecified), the TGI in assay [2], in assay [8], in assay [3], in assay [4], in assay [5] and in assay [6] was greater than 100 µM throughout. Further, the TGI in [7] was greater than 100 µM.
`O=c1c2ccccc2n2n1CC(O)C2` (stereo unspecified): the TGI in [2], in [3], in assay [4], in assay [6] and in assay [7] was greater than 100 µM in each case.
As for `CN(C)c1ccc(/C=C2\N=C(c3ccc([N+](=O)[O-])cc3)OC2=O)cc1`, the TGI in [1] is greater than 100 µM.
